From patent publication US20150175530A1, “ANTIBACTERIAL AGENTS” (priority 2012, published 2015)
≈ marks a conversion by molar mass, not a printed value. Where two headings read alike, the source gives them in different places.

What was measured:
[1] = system: 3 P. aeruginosa strains (APAE001, APAE002, APAE006); assay: Protein binding: fold change in MIC in the presence of 2% HSA and 0.05% AGP, Geomean of 3 strains; assay type: cell-based, Pseudomonas aeruginosa; details: MIC in the presence of 2% HSA and 0.05% AGP divided by MIC in the absence; Geomean of 3 P. aeruginosa strains (APAE001, APAE002, APAE006)
Outline: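 MIC against each strain was determined by the standard broth method in cation-adjusted Mueller-Hinton broth with and without 2% HSA plus 0.05% AGP. Fold change is the MIC ratio with/without protein per strain; the value reported is the geometric mean over APAE001, APAE002 and APAE006.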

[2] = system: bacterial isolates (clinical isolates and ATCC quality control strains); assay: Minimum Inhibitory Concentrations (MICs) by broth microdilution (CLSI susceptibility testing); assay type: cell-based; details: broth microdilution
Outline: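 Broth microdilution per CLSI in cation-adjusted Mueller-Hinton broth, 2-fold serial drug dilutions, final inoculum 3×10^5–7×10^5 CFU/mL. Plates incubated 18-24 h at 35 °C in ambient air; MIC is lowest concentration preventing visible growth (OD600 nm<0.05), with levofloxacin and QC strains monitoring performance.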

[3] = APAE1096 is a clinical isolate, read-out: Minimum Inhibitory Concentrations (MICs) APAE1096
[4] = Pseudomonas aeruginosa, APAE002 is a wildtype lab strain of Pseudomonas aeruginosa known as PAM1020 or PA01, read-out: Minimum Inhibitory Concentrations (MICs) APAE002
[5] = Pseudomonas aeruginosa, ATCC27853, APAE001 is Pseudomonas aeruginosa ATCC27853, read-out: Minimum Inhibitory Concentrations (MICs) APAE001

SMILES | Protein Binding PB (Geomean of fold change in MIC) [1] | MIC [2, 3] [µg/mL] | MIC [2, 4] [µg/mL] | MIC [2, 5] [µg/mL]
C[C@@H](CO)[C@H](O)C#CC#Cc1ccc(C(=O)N[C@H](C(=O)NO)C(C)(C)N)cc1 [Compound 53, N—((S)-3-amino-1-(hydroxyamino)-3-methyl-1-oxobutan-2-yl)-4-((5S,6S)-5,7-dihydroxy-6-methylhepta-1,3-diyn-1-yl)benzamide] | 2.0 | 8 to 16 (≈ 20.6 to 41.3 µM) | 1 to 8 (≈ 2.58 to 20.6 µM) | 1 to 8 (≈ 2.58 to 20.6 µM)
CC(C)(N)[C@H](NC(=O)c1ccc(C#CC#C[C@@H](O)CCO)cc1)C(=O)NO [Compound 54, N—((S)-3-amino-1-(hydroxyamino)-3-methyl-1-oxobutan-2-yl)-4-((S)-5,7-dihydroxyhepta-1,3-diyn-1-yl)benzamide] | 2.0 | 8 to 16 (≈ 21.4 to 42.8 µM) | < 1 | < 1
CC(C)(N)[C@H](NC(=O)c1ccc(C#C/C=C/CCO)cc1)C(=O)NO [Compound 55, (S,E)-N-(3-amino-1-(hydroxyamino)-3-methyl-1-oxobutan-2-yl)-4-(6-hydroxyhex-3-en-1-yn-1-yl)benzamide] | 2.0 | 1 to 8 (≈ 2.9 to 23.2 µM) | < 1 | < 1
CN[C@H](C)[C@H](NC(=O)c1ccc(C#CC#CCO)cc1)C(=O)NO [Compound 56, N-((2S,3R)-1-(hydroxyamino)-3-(methylamino)-1-oxobutan-2-yl)-4-(5-hydroxypenta-1,3-diyn-1-yl)benzamide] | 2.5 | 1 to 8 (≈ 3.04 to 24.3 µM) | < 1 | < 1
CC(C)(N)[C@H](NC(=O)c1ccc(C#CC#CC2(O)CCC(CO)C2)cc1)C(=O)NO (stereo partly drawn) [Compound 57, N—((S)-3-amino-1-(hydroxyamino)-3-methyl-1-oxobutan-2-yl)-4-((1-hydroxy-3-(hydroxymethyl)cyclopentyl)buta-1,3-diyn-1-yl)benzamide] | 1.6 | 1 to 8 (≈ 2.42 to 19.3 µM) | < 1 | < 1
CC(C)(N)[C@H](NC(=O)c1ccc(C#C/C=C/C(O)CO)cc1)C(=O)NO (stereo partly drawn) [Compound 58, N—((S)-3-amino-1-(hydroxyamino)-3-methyl-1-oxobutan-2-yl)-4-((E)-5,6-dihydroxyhex-3-en-1-yn-1-yl)benzamide] | 1.0 | 8 to 16 (≈ 22.1 to 44.3 µM) | 1 to 8 (≈ 2.77 to 22.1 µM) | 1 to 8 (≈ 2.77 to 22.1 µM)
C[C@H](O)C#CC#Cc1ccc(C(=O)N[C@H](C(=O)NO)[C@@H](N)C(F)(F)F)cc1 [Compound 59, N-((2S,3R)-3-amino-4,4,4-trifluoro-1-(hydroxyamino)-1-oxobutan-2-yl)-4-((S)-5-hydroxyhexa-1,3-diyn-1-yl)benzamide] | 3.2 | 1 to 8 (≈ 2.61 to 20.9 µM) | < 1 | 1 to 8 (≈ 2.61 to 20.9 µM)
CC(C)(N)[C@H](NC(=O)c1ccc(C#CC#C[C@H](O)CO)cc1)C(=O)NO [Compound 61, N—((S)-3-amino-1-(hydroxyamino)-3-methyl-1-oxobutan-2-yl)-4-((S)-5,6-dihydroxyhexa-1,3-diyn-1-yl)benzamide] | 1.6 | 1 to 8 (≈ 2.78 to 22.3 µM) | < 1 | < 1
CC(C)(N)[C@H](NC(=O)c1ccc(C#CC#C[C@@H](O)CO)cc1)C(=O)NO [Compound 62, N—((S)-3-amino-1-(hydroxyamino)-3-methyl-1-oxobutan-2-yl)-4-((R)-5,6-dihydroxyhexa-1,3-diyn-1-yl)benzamide] | 2.0 | 1 to 8 (≈ 2.78 to 22.3 µM) | < 1 | < 1
